The values that follow come from patent US6867320B2, “Substituted phenylalkanoic acid derivatives and use thereof” (Asahi Kasei Pharma Corporation, priority 2002, dated 2005).

The assay concerns PGE2 production from IL-1β-stimulated MG-63 cells. As to the kind of experiment: Suppressing action on PGE2 production from IL-1β-stimulated MG-63 cells. Type of assay: cell-based. The note with it: Homo sapiens, IL-1β 1 ng/ml, 18 hours, read-out: PGE2 production suppression ratio. From the text:
1. Suppressing Action on PGE2 Production from IL-1β-Stimulated MG-63 Cells (1) Method for Measurement
An action of suppressing PGE2 production caused by interleukin (IL) 1β as an inflammatory stimulant was studied by the following method. Cells of MG-63, which is a human osteosarcoma cell line (purchased from Dainippon Pharmaceutical), were suspended in EMEM medium (GIBCO) containing 10% fetal bovine serum (BioFluid), and then inoculated to each well of 96-well culture plate at a density of 2×10^4 cells/well and cultured overnight. The medium was changed to EMEM medium containing 0.5% fetal bovine serum, and then a test compound was added with each well. Human interleukin-1β (ENDOGEN) was further added as an inflammatory stimulant at a final concentration of 1 ng/ml. The cells were further cultured for 18 hours. The culture supernatant was collected, and the PGE2 concentration in the culture supernatant was measured by using EIA kit (CAYMAN). By using a well which was not added with the stimulant as a negative control and a well which was added only with the stimulant as a positive control, suppression ratios on PGE2 production were calculated from produced amounts of PGE2 in the well added with the test compound using the following equation. PGE2 production suppression ratio=[1−(C−B)/(A−B)]×100 • A: PGE2 production amount of positive control • B: PGE2 production amount of negative control • C: PGE2 production amount in well added with test compound

With `O=C(O)CCc1ccc(OCc2cccc(F)c2)c(-c2ccc3[nH]ccc3c2)c1` [Compound 144, 3-[4-(3-fluorophenylmethyloxy)-3-(1H-indol-5-yl)phenyl]propionic acid], the inhibition at 0.4 µM is at least 50%.

On to `O=C(O)CCc1ccc(OCc2ccccc2C(F)(F)F)c(-c2ccc3[nH]ccc3c2)c1` [Compound 170, 3-{3-(1H-indol-5-yl)-4-[2-(trifluoromethyl)phenylmethyloxy]-phenyl}propionic acid], for which the inhibition at 0.4 µM is at least 50%.

For `O=C(O)CCc1ccc(OCc2ccc(C(F)(F)F)cc2)c(-c2ccc3[nH]ccc3c2)c1` [Compound 172, 3-{3-(1H-indol-5-yl)-4-[4-(trifluoromethyl)phenylmethyloxy]-phenyl}propionic acid], the inhibition at 0.4 µM is at least 50%.

`Cc1cc(C)cc(COc2ccc(CCC(=O)O)cc2-c2ccc3[nH]ccc3c2)c1` [Compound 175, 3-[4-(3,5-dimethylphenylmethyloxy)-3-(1H-indol-5-yl)phenyl]propionic acid]: the inhibition at 0.4 µM was at least 50%.

As for `O=C(O)CCc1ccc(OC2CCCCCC2)c(-c2ccc3[nH]ccc3c2)c1` [Compound 184, 3-[4-cycloheptyloxy-3-(1H-indol-5-yl)phenyl]propionic acid], the inhibition at 0.4 µM is at least 50%.

On to `O=C(O)CCc1ccc(OCc2cc(Cl)cc(Cl)c2)c(-c2ccc3[nH]ccc3c2)c1` [Compound 188, 3-[4-(3,5-dichlorophenylmethyloxy)-3-(1H-indol-5-yl)phenyl]propionic acid], for which the inhibition at 0.4 µM was at least 50%.

On to `O=C(O)CCc1ccc(OCc2ccco2)c(-c2ccc3[nH]ccc3c2)c1` [Compound 194, 3-{4-[(furan-2-yl)methyloxy]-3-(1H-indol-5-yl)phenyl}propionic acid], for which the inhibition at 0.4 µM is at least 50%.

Consider `O=C(O)CCc1ccc(OCc2ccoc2)c(-c2ccc3[nH]ccc3c2)c1` [Compound 196, 3-{4-[(furan-3-yl)methyloxy]-3-(1H-indol-5-yl)phenyl}propionic acid], for which the inhibition at 0.4 µM was at least 50%.

For `O=C(O)CCc1ccc(OCc2cccs2)c(-c2ccc3[nH]ccc3c2)c1` [Compound 198, 3-{3-(1H-indol-5-yl)-4-[(thiophen-2-yl)methyloxy]phenyl}propionic acid], the inhibition at 0.4 µM is at least 50%.

As for `CC(C)n1ccc2cc(-c3cc(CCC(=O)O)ccc3OCC3CCCC3)ccc21` [Compound 238, 3-[4-cyclopentylmethyloxy-3-(1-isopropyl-1H-indol-5-yl)phenyl]propionic acid], the inhibition at 0.4 µM was at least 50%.

Turning to `CCCCn1ccc2cc(-c3cc(CCC(=O)O)ccc3OCC3CCCC3)ccc21` [Compound 240, 3-[3-(1-butyl-1H-indol-5-yl)-4-cyclopentylmethyloxyphenyl]propionic acid], the inhibition at 0.4 µM is at least 50%.

Regarding `O=C(O)CCc1ccc(OCC2CCCC2)c(-c2ccc3c(ccn3C3CCCC3)c2)c1` [Compound 242, 3-[3-(1-cyclopentyl-1H-indol-5-yl)-4-cyclopentylmethyloxyphenyl]propionic acid], the inhibition at 0.4 µM was at least 50%.

Turning to `Cc1cn(C)c2ccc(-c3cc(CCC(=O)O)ccc3OCC3CCCC3)cc12` [Compound 252, 3-[4-cyclopentylmethyloxy-3-(1,3-dimethyl-1H-indol-5-yl)phenyl]propionic acid], the inhibition at 0.4 µM was at least 50%.

Take `O=Cc1c[nH]c2ccc(-c3cc(CCC(=O)O)ccc3OCC3CCCC3)cc12` [Compound 254, 3-[4-cyclopentylmethyloxy-3-(3-formyl-1H-indol-5-yl)phenyl]propionic acid]: the inhibition at 0.4 µM is at least 50%.

On to `Cn1cc(C=O)c2cc(-c3cc(CCC(=O)O)ccc3OCC3CCCC3)ccc21` [Compound 255, 3-[4-cyclopentylmethyloxy-3-(3-formyl-1-methyl-1H-indol-5-yl)phenyl]propionic acid], for which the inhibition at 0.4 µM is at least 50%.

Regarding `CC(=O)c1cn(C)c2ccc(-c3cc(CCC(=O)O)ccc3OCC3CCCC3)cc12` [Compound 259, 3-[3-(3-acetyl-1-methyl-1H-indol-5-yl)-4-cyclopentylmethyloxyphenyl]propionic acid], the inhibition at 0.4 µM was at least 50%.

As to `O=C(O)CCc1cc(Cl)c(OCC2CCCC2)c(-c2ccc3[nH]ccc3c2)c1` [Compound 263, 3-[3-chloro-4-cyclopentylmethyloxy-5-(1H-indol-5-yl)phenyl]propionic acid], the inhibition at 0.4 µM was at least 50%.

As for `Cn1ccc2cc(-c3cc(CCC(=O)O)cc(N)c3OCC3CCCC3)ccc21` [Compound 269, 3-[3-amino-4-cyclopentylmethyloxy-5-(1-methyl-1H-indol-5-yl)phenyl]propionic acid], the inhibition at 0.4 µM was at least 50%.

For the compound `Cc1[nH]c2ccc(-c3cc(CCC(=O)O)ccc3OCC3CCCCC3)cc2c1C` [Compound 273, 3-[4-cyclohexylmethyloxy-3-(2,3-dimethyl-1H-indol-5-yl)phenyl]propionic acid], the inhibition at 0.4 µM is at least 50%.

Take `O=C(O)CCc1ccc(OCC2CCCC2)c(-c2ccc3occc3c2)c1` [Compound 277, 3-[3-(benzo[b]furan-5-yl)-4-cyclopentylmethyloxyphenyl]propionic acid]: the inhibition at 0.4 µM is at least 50%.

Consider `Cc1oc2ccc(-c3cc(CCC(=O)O)ccc3OCC3CCCCC3)cc2c1C` [Compound 279, 3-[4-cyclohexylmethyloxy-3-(2,3-dimethylbenzo[b]furan-5-yl)phenyl]propionic acid], for which the inhibition at 0.4 µM is at least 50%.

With `Cc1nc2cc(-c3cc(CCC(=O)O)ccc3OCC3CCCC3)ccc2s1` [Compound 283, 3-[4-cyclopentylmethyloxy-3-(2-methylbenzothiazol-5-yl)phenyl]propionic acid], the inhibition at 0.4 µM was at least 50%.

On to `Nc1nc2cc(-c3cc(CCC(=O)O)ccc3OCC3CCCC3)ccc2s1` [Compound 285, 3-[3-(2-aminobenzothiazol-5-yl)-4-cyclopentylmethyloxyphenyl]propionic acid], for which the inhibition at 0.4 µM is at least 50%.

In the case of `CNc1nc2ccc(-c3cc(CCC(=O)O)ccc3OCC3CCCC3)cc2s1` [Compound 297, 3-[4-cyclopentylmethyloxy-3-(2-methylaminobenzothiazol-6-yl)phenyl]propionic acid], the inhibition at 0.4 µM was at least 50%.

For the compound `Cn1c(=N)sc2cc(-c3cc(CCC(=O)O)ccc3OCC3CCCC3)ccc21` [Compound 303, 3-[4-cyclopentylmethyloxy-3-(2-imino-3-methyl-2,3-dihydrobenzothiazol-6-yl)phenyl]propionic acid], the inhibition at 0.4 µM was at least 50%.

In the case of `CN=c1sc2cc(-c3cc(CCC(=O)O)ccc3OCC3CCCC3)ccc2n1C` [Compound 305, 3-{4-cyclopentylmethyloxy-3-[3-methyl-2-(methylimino)-2,3-dihydrobenzothiazol-6-yl]phenyl}propionic acid], the inhibition at 0.4 µM was at least 50%.

Consider `COc1nc2ccc(-c3cc(CCC(=O)O)ccc3OCC3CCCC3)cc2s1` [Compound 306, 3-[4-cyclopentylmethyloxy-3-(2-methoxybenzothiazol-6-yl)phenyl]propionic acid], for which the inhibition at 0.4 µM is at least 50%.

In the case of `Cc1nc2ccc(-c3cc(CCC(=O)O)ccc3OCC3CCCC3)cc2s1` [Compound 308, 3-[4-cyclopentylmethyloxy-3-(2-methylbenzothiazol-6-yl)phenyl]propionic acid], the inhibition at 0.4 µM was at least 50%.

In the case of `O=C(O)CCc1ccc(OCC2CCCC2)c(-c2ccc3[nH]c(=S)sc3c2)c1` [Compound 309, 3-[4-cyclopentylmethyloxy-3-(2-thioxo-2,3-dihydrobenzothiazol-6-yl)phenyl]propionic acid], the inhibition at 0.4 µM is at least 50%.

As for `O=C(O)CCc1ccc(OCC2CCCC2)c(-c2ccc3[nH]c(=O)sc3c2)c1` [Compound 310, 3-[4-cyclopentylmethyloxy-3-(2-oxo-2,3-dihydrobenzothiazol-6-yl)-phenyl]propionic acid], the inhibition at 0.4 µM was at least 50%.

Turning to `Cn1c(=O)sc2cc(-c3cc(CCC(=O)O)ccc3OCC3CCCC3)ccc21` [Compound 313, 3-[4-cyclopentylmethyloxy-3-(2-oxo-3-methyl-2,3-dihydrobenzothiazol-6-yl)phenyl]propionic acid], the inhibition at 0.4 µM is at least 50%.

Turning to `O=C(O)CCc1ccc(OCC2CCCC2)c(-c2cnc3ccccc3c2)c1` [Compound 315, 3-[4-cyclopentylmethyloxy-3-(quinolin-3-yl)phenyl]propionic acid], the inhibition at 0.4 µM was at least 50%.

As for `O=C(O)CCc1ccc(OCC2CCCCC2)c(-c2ccc3ncccc3c2)c1` [Compound 319, 3-[4-cyclohexylmethyloxy-3-(quinolin-6-yl)phenyl]propionic acid], the inhibition at 0.4 µM was at least 50%.

`O=C(O)CCc1ccc(OCC2CCCCC2)c(-c2ccc3[nH]c(=O)ccc3c2)c1` [Compound 321, 3-[4-cyclohexylmethyloxy-3-(2-oxo-1,2-dihydroquinolin-6-yl)-phenyl]propionic acid]: the inhibition at 0.4 µM is at least 50%.

For the compound `O=C(O)CCc1ccc(OCc2ccccc2)c(-c2ccc3ccccc3c2)c1` [Compound 323, 3-[4-benzyloxy-3-(naphthalen-2-yl)phenyl]propionic acid], the inhibition at 0.4 µM is at least 50%.

Consider `CC(C)(C)c1ccc(COc2ccc(CCC(=O)O)cc2-c2ccc3[nH]ccc3c2)cc1` [Compound 327, 3-[4-(4-t-butylphenylmethyloxy)-3-(1H-indol-5-yl)phenyl]propionic acid], for which the inhibition at 0.4 µM was at least 50%.
